Laboratory results reported in patent US20080306070A1, “Combination Therapy Comprising Substituted Oxazolidinones for the Prevention and Treatment of Cerebral Circulatory Disorders” (BAYER HEALTHCARE AG, priority 2005, published 2008).

Experiments:
[1] = tested on: thrombus formation in an arteriovenous shunt; assay: Arteriovenous shunt model (rat), antithrombotic effect; format: in vivo; settings: oral administration, read-out: ED50 [mg/kg] p.o.
Experimental: Fasting male rats (strain: HSD CPB:WU) weighing 200-250 g were anesthetized with a Rompun/Ketavet solution (12 mg/kg/50 mg/kg). Thrombus formation was induced in an arteriovenous shunt by a method based on that described by Christopher N. Berry et al., Br. J. Pharmacol. (1994), 113, 1209-1214. For this purpose, the left jugular vein and the right carotid artery were exposed. An extracorporeal shunt was formed between the two vessels using a 10 cm-long polyethylene tube (PE 60). This polyethylene tube was secured in the middle by tying in a further 3 cm-long polyethylene tube (PE 160) which contained a roughened nylon thread forming a loop to produce a thrombogenic surface. The extracorporeal circulation was maintained for 15 minutes. The shunt was then removed and the nylon thread with the thrombus was immediately weighed. The blank weight of the nylon thread had been found before the start of the experiment. The test substances were administered either intravenously through the tail vein or orally by gavage to conscious animals before setting up the extracorporeal circulation.

| SMILES | ED50 [1] | melting point |
| --- | --- | --- |
| O=C(NC[C@H]1CN(c2ccc(N3CCOCC3=O)cc2)C(=O)O1)c1ccc(Cl)s1 [Example 44, 5-Chloro-N-({(5S)-2-oxo-3-[4-(3-oxo-4-morpholinyl)phenyl]-1,3-oxazolidin-5-yl}methyl)-2-thiophenecarboxamide] | 3 mg/kg | – |
| O=C(NC[C@H]1CN(c2ccc(N3CCCOC3=O)cc2)C(=O)O1)c1ccc(Cl)s1 [Example 255] | – | 228 to 230 °C |
